Experimental data taken from patent US4067997A, “Synergistic microbecidal composition and method” (priority 1976, dated 1978).
Converted amounts (≈) assume the structure as drawn. Structures can show the parent of a compound that is named as a salt. Where two headings read alike, the source gives them in different places.

How the values were obtained:
[1] = tested on: Pneumococci; test: MIC, broth dilution (Examples I/II); format: cell-based, pneumococcus (63001); conditions: Table 8, Pneumococci
Experimental: (§1) In order to establish comparative bactericidal and fungicidal results with homologous fatty acids, a series of experiments was performed with thirty straight-chain fatty acids and derivatives thereof. Eight different gram-negative and twelve different gram-positive organisms, representing a very broad spectrum of organisms, were used in these experiments including the fungus Candida (a yeast). Additionally, fatty acids were chosen to show the effects of saturation versus unsaturation, in the fatty acid claim. Standard solutions of the fatty acids and their derivatives were prepared by first dissolving the weighed compounds in 1 to 2 ml of 95% ethanol and immediately pouring this solution into 200 ml of Tripticase Soy Broth. These lipid compounds which are insoluble in water and broth precipitated into very small crystals or droplets. The tubes containing the suspension were warmed to approximately 70° C and were then placed in an ultrasonic tank for further solubilization of the lipid derivatives.
(§2) Standard solutions (or suspensions) at 1,000 μg/ml were twofold serially diluted with additional broth to a concentration of 125 μg/ml. A 4-ml amount of each dilution was then quickly, and with constant agitation, dispensed into appropriately labeled screw-capped glass tubes (16 by 125 mm). The tubes were sterilized with steam at 15 psi for 15 minutes. After sterilization, all tubes were cooled and incubated overnight at 35° C to insure sterility.
(§3) All compounds were compared on a molar (micromoles/milliliter) rather than on a mass basis. In the following lists of organisms used, those followed by a parenthetical number are registered with the American Type Culture Collection (ATCC); the remainder were isolates from Providence Hospital or Northland Laboratory.
(§4) One drop (0.04 ± 0.01 ml) of an 18-hr broth culture containing 10^7 and 10^9 organisms/ml was added to each dilution of the test compound, as well as to a tube of plain broth which served as the positive control. After inoculation, the contents of each tube were well mixed, and the tubes were incubated at 35° C in a 5% carbon dioxide + […] atmosphere.
(§5) The MIC is defined as the lowest concentration of compound at which no […] evidence of growth was observed when turbidity of the inoculated broth dilutions was compared with control tubes. […] Only a one-tube difference between the bactericidal and bacteriostatic concentrations was normally observed.
(§6) Standard solutions (1000 μg/ml) of three fatty acids and polyglycerol esters thereof were prepared as described in Example I. Also sucrose esters were prepared by transferring the weighed compounds (0.2 gm. dissolved in 1 ml absolute methanol) into 200 ml of sterile Trypticase Soy Broth (TSB). These standard solutions (1000 μg/ml) were twofold serially diluted with additional sterile broth to a concentration of 125 μg/ml. A 3.8 aliquot of each dilution was asceptically delivered into sterile screw-capped culture tubes. All tubes were incubated overnight at 36° C to insure sterility. The microorganisms used in this example were the same as those used in Example I.
(§7) The inoculum, 0.05 ml of an 13-24 hour TSB culture (approximately 10^9 organisms/ml) was asceptically delivered into all dilutions of the compounds, mixed well, and incubated at 36° C. A tube of inoculated broth without the compound served as a positive control and an uninoculated set of dilutions incubated along with the test dilutions, served as a negative control.
(§8) In those cases in which the test compound itself caused turbidity, an aliquot (0.015 ml) of the mixed broth was inoculated onto an agar plate and incubated at 36° C for examination, as described in Example I. The control procedure of Example I was also repeated. The lauric, capric, and oleic acids were used as internal controls and for comparison to Example I. The minimal inhibitory concentrations (μmole/ml) for the compounds studied are given in Tables 7 and 8.

[2] = tested on: Streptococcus Group A; test: MIC, broth dilution (Examples I/II); format: cell-based, beta-hemolytic streptococci Group A; conditions: Table 8, Strep. Grp. A; for MIC (second value, in parentheses): parentheses not explained
Experimental: as §1, §2, §3, §4, §5, §6, §7, §8

[3] = tested on: Corynebacteria; test: MIC, broth dilution (Examples I/II); format: cell-based, Corynebacterium sp. (10700); conditions: Table 8, Corynebacteria; for MIC (second value, in parentheses): parentheses not explained
Experimental: as §1, §2, §3, §4, §5, §6, §7, §8

[4] = tested on: Nocardia asteroides; test: MIC, broth dilution (Examples I/II); format: cell-based, Nocardia asteroids (3308); conditions: Table 8, Nocardia asteroides; for MIC (second value, in parentheses): parentheses not explained
Experimental: as §1, §2, §3, §4, §5, §6, §7, §8

[5] = tested on: Micrococci; test: MIC, broth dilution (Examples I/II); format: cell-based, Micrococcus sp.; conditions: Table 8, Micrococci
Experimental: as §1, §2, §3, §4, §5, §6, §7, §8

[6] = tested on: S. epidermidis; test: MIC, broth dilution (Examples I/II); format: cell-based; conditions: Table 8, Staph. epider.; > = no inhibition, max. tested
Experimental: as §1, §2, §3, §4, §5, §6, §7, §8

[7] = tested on: Sarcina; test: MIC, broth dilution (Examples I/II); format: cell-based, Sarcina lutea (9431); conditions: Table 8, Sarcina; > = no inhibition, max. tested
Experimental: as §1, §2, §3, §4, §5, §6, §7, §8

[8] = tested on: Candida albicans; test: MIC on mass basis (Example V procedure); format: cell-based; conditions: Candida albicans
Experimental: (§9) The essential procedure of Example I was followed with a series of phenolic compounds, with the exception that the test method was conducted on a mass (μg/ml) basis rather than a molecular (mol/ml) basis of the foregoing tests, since the long established phenol-coeffecient test is on a mass rather than molecular basis. Additionally, a different but closely related group of organisms were used in this test, in order to give a complete representative span on gram-negative, gram-positive and fungus organisms. Additionally, the phenolic derivatives chosen for test purposes include a number of derivatives which are presently accepted by the FDA as food-grade phenolic microbicides.
(§10) The same procedure of Example V was repeated but with combinations of mono-laurin (GML).
(§11) The procedure of Example V was repeated with combinations of glycerol mono-laurin (GML) and ethylenediamine tetraacetic acid (EDTA) as the calcium salt and in combination with BHA.

[9] = tested on: Escherichia coli; test: MIC on mass basis (Example V procedure); format: cell-based; conditions: Escherichia coli
Experimental: as §9, §10, §11

[10] = tested on: Nocardia asteroides; test: MIC on mass basis (Example V procedure); format: cell-based
Experimental: as §9, §10, §11

[11] = tested on: Pseudomonas aeruginosa; test: MIC on mass basis (Example V procedure); format: cell-based; conditions: Pseudomonas aeruginosa
Experimental: as §9, §10, §11

[12] = tested on: Saccharomyces cerevisiae; test: MIC on mass basis (Example V procedure); format: cell-based; conditions: Saccharomyces cerevisiae
Experimental: as §9, §10, §11

[13] = tested on: Staphylococcus aureus; test: MIC on mass basis (Example V procedure); format: cell-based; conditions: Staphylococcus aureus
Experimental: as §9, §10, §11

[14] = tested on: Streptococcus agalactiae; test: MIC on mass basis (Example V procedure); format: cell-based; conditions: Streptococcus agalactiae
Experimental: as §9, §10, §11

[15] = tested on: Streptococcus mutans; test: MIC on mass basis (Example V procedure); format: cell-based, Streptococcus mutans (ATCC 10441); conditions: Streptococcus mutans
Experimental: as §9, §10, §11

[16] = tested on: Corynebacterium sp.; test: MIC on mass basis (Example V procedure); format: cell-based
Experimental: as §9

[17] = tested on: Streptococcus Group D; test: MIC, broth dilution (Examples I/II); format: cell-based; conditions: Table 3, Streptococcus Group D
Experimental: as §1, §2, §3, §4, §5, §6, §7, §8

## Sucrose linoleate
[1]
  MIC: 50 µM
[2]
  MIC: 410 µM
  MIC (second value, in parentheses): 820 µM
[3]
  MIC: > 1660 µM
  MIC (second value, in parentheses): 1660 µM
[4]
  MIC: 410 µM
  MIC (second value, in parentheses): 1660 µM
[5]
  MIC: 820 µM
[6]
  MIC: > 1660 µM
[7]
  MIC: > 1660 µM

## CC(C)(C)c1ccc(C(C)(C)C)c(O)c1 [2,5-di-tert-butylphenol]
[8]
  MIC: > 1000 µg/mL
[9]
  MIC: > 1000 µg/mL
[10]; Nocardia asteroides
  MIC: 7.8 µg/mL
[11]
  MIC: > 1000 µg/mL
[12]
  MIC: 62.5 µg/mL
[13]
  MIC: 62.5 µg/mL
[14]
  MIC: 15.6 µg/mL
[15]
  MIC: 7.8 µg/mL
[16]; Corynebacterium
  MIC: 7.8 µg/mL (≈ 37.8 µM)

## O=C(O)CCCCCCCCCCC(=O)O [Dodecanedioic acid]
[17]
  MIC: Ni

## O=C(O)CN(CCN(CC(=O)O)CC(=O)O)CC(=O)O [EDTA (N2 Ca salt), ethylenediamine tetraacetic acid]
[8]
  MIC: > 1000 µg/mL
[9]; Table 14, Escherichia coli
  MIC: < 1000 µg/mL
[10]; Nocardia asteroides
  MIC: 1000 µg/mL
[11]
  MIC: > 1000 µg/mL
[12]; Table 14, Saccharomyces cerevisiae, read-out: MIC
  MIC: > 1000 µg/mL
[13]
  MIC: > 1000 µg/mL
[14]
  MIC: > 1000 µg/mL
[15]
  MIC: 500 µg/mL

## Sucrose elaidate
[1]
  MIC: 200 µM
[2]
  MIC: 200 µM
[3]
  MIC: 1640 µM
[4]
  MIC: 200 µM
[5]
  MIC: 820 µM
[6]
  MIC: > 1640 µM
[7]
  MIC: > 1640 µM

## CC(C)(C)c1cc(C(C)(C)C)c(O)c(C(=O)O)c1O [3,5-di-tert-butyl-2,6-dihydroxbenzoic]
[8]; Table 11, Candida albicans, read-out: MIC
  MIC: 500 µg/mL
[9]; Table 11, Escherichia coli, read-out: MIC
  MIC: > 1000 µg/mL
[10]; Table 11, Nocardia asteroides, read-out: MIC
  MIC: 15.6 µg/mL
[11]; Table 11, Pseudomonas aeruginosa, read-out: MIC
  MIC: > 1000 µg/mL
[12]
  MIC: 500 µg/mL
[13]; Table 11, Staphylococcus aureus, read-out: MIC
  MIC: 31.2 µg/mL
[14]; Table 11, Strepococcus agalactiae, read-out: MIC
  MIC: 15.6 µg/mL
[15]; Table 11, Strepococcus mutans, read-out: MIC
  MIC: 31.2 µg/mL
[16]; Table 11, Corynebacterium sp., read-out: MIC
  MIC: 15.6 µg/mL (≈ 58.6 µM)

## Sucrose laurate
[1]
  MIC: 120 µM
[2]
  MIC: 30 µM
  MIC (second value, in parentheses): 120 µM
[3]
  MIC: 470 µM
  MIC (second value, in parentheses): 230 µM
[4]
  MIC: 470 µM
  MIC (second value, in parentheses): 1900 µM
[5]
  MIC: 1900 µM
[6]
  MIC: > 1900 µM
[7]
  MIC: > 1900 µM
